# Assay results published in patent US12138256B2, “Treatment of cardiopulmonary disorders” (Bayer Aktiengesellschaft, priority 2021, dated 2024).
# “And” between values parts separate entries of the source, which are not always exact repeats. Equal values may be shown once.
# Key:
# [1] = test system: anesthetized PAH minipigs; experiment: PAH minipig model: intratracheal application of dry powder formulations and different hydrates (PennCentury insufflator); type: in vivo, Göttingen minipig; conditions: for BP (mean) / PAP(mean) / BP % changes vs. prevalues / PAP % changes vs. prevalues: 375 μg/kg i.t.; for BP (mean) / PAP(mean): absolute values; for BP % changes vs. prevalues / PAP % changes vs. prevalues: each animal
# Source text: After characterization of the effects of comparative example 11 after nebulization of compound solutions, in a further step the effects of crystalline forms of comparative example 11, e.g. sesquihydrate, e.g. example 6e on PAP and BP after inhaled application of different dry powder lactose formulations (table C2.1.8) were studied in anesthetized PAH minipigs.
# As reference pure Lactose vehicle was applied in the beginning of each experiment.
# [2] = test system: thromboxane analog U46619 induced PAH in minipigs; experiment: Haemodynamics (PAP, BP) in the anesthetized thromboxane challenged PAH minipig after inhaled (nebulized) application (C-2.1); type: in vivo, Göttingen minipig; conditions: 10 μg/kg nominal dose, inhaled, n = 3
# Experimental: Experiments were carried out in anesthetized Göttingen minipigs, anesthetized rats and conscious, telemetrically instrumented dogs. Acute pulmonary hypertension was induced for example by infusion of a thromboxane A2 analogon, by acute hypoxia treatment or hypoxia treatment over a number of weeks and/or by administration of monocrotaline. Test substances were applied via nebulization using the Nebutec® or Aeroneb® Pro nebulizer system, and/or by means of powder and/or solution applicators for experimental intratracheal administration (Liquid MicroSprayer®, Dry Powder Insufflator™, MicroSprayer®, Penn-Century Inc., Wyndmoor, PA, USA) or after solid nebulization inserted into the inspiration arm of the ventilation. Compounds were employed as solids or solutions depending on the molecular structure and the technical possibility depending on the experiment. The haemodynamic signals were recorded and evaluated by means of pressure transducers/amplifiers (Combitransducer B. Braun, Melsungen, Germany or CardioMEMS Inc., Atlanta, GA, USA) and Ponemah® or CardioMems® as data aquisition software. After long-term experiments (for example monocrotaline rat), it is also possible to carry out a histological evaluation.
# Healthy Gottingen Minipigs® Ellegaard (Ellegaard, Denmark) of both sexes and having a weight of 2-6 kg were used. The animals were sedated by i.m. administration of about 25 mg/kg ketamine and about 10 mg/kg azaperone. Anaesthesia was initiated by i.v. administration of about 2 mg/kg ketamine and about 0.3 mg/kg midazolam. Maintenance of anaesthesia was by i.v. administration of about 7.5-30 mg/kg/h ketamine and about 1-4 mg/kg/h midazolam (rate of infusion 1-4 ml/kg/h) and about 150 μg/kg/h pancuronium bromide (for example Pancuronium-Actavis). After intubation, the animals were ventilated by the ventilator at a constant respiratory volume (10-12 ml/kg, 35 breaths/min; Avea®, Viasys Healthcare, USA, or Engstrom Carestation, GE Healthcare, Freiburg, Germany) such that an end-tidal CO2 concentration of about 5% was achieved. Ventilation was performed with room air, enriched with about 40% oxygen (normoxia). For the measurement of the haemodynamic parameters such as pulmonary arterial pressure (PAP), blood pressure (BP) and heart rate (HR), catheters were inserted into the carotid artery to measure the blood pressure, and a Swan-Ganz® catheter was introduced in a flow-directed manner via the jugular vein into the pulmonary artery. The haemodynamic signals were recorded and evaluated by means of pressure transducers (Combitransducer, B. Braun, Melsungen, Germany)/amplifiers and Ponemah® as data aquisition software.
# After the instruments have been placed into the animals, continuous infusion of a thromboxane A2 analog was initiated to increase the pulmonary arterial pressure. […] D0400, or Cayman Chemical Company, cat. no. 16440), dissolved in physiological saline, were infused to achieve an increase of the mean pulmonary arterial pressure to values of over 25 mmHg. 30 minutes after the start of the infusion, a plateau was reached, and the experiment was started.
# The test substances were administered as i.v. infusion or by inhalation. For the preparation of the solution for inhalation, the following procedure was adopted: For an animal having a weight of 4 kg, to prepare the stock solution (300 μg/kg), 1.2 mg of the test compound were weighed out and dissolved in a total volume of 3 ml (1% DMSO, 99% 0.2% strength citric acid solution, 1 N aqueous sodium hydroxide solution to adjust the pH to 8). The solution was then diluted to the concentration employed using 0.2% strength citric acid which had been adjusted to pH 8 beforehand with aqueous sodium hydroxide solution. In each test, 3 ml of the solution of test compound per 4 kg animal were nebulized in the inhalation arm of the respiratory circuit using the Aeroneb® Pro nebulizer system. The mean nebulization time was about 7 min from the start of the nebulization.
compound,measurement,setting,value
"O.O=C(O)c1ccc(CCN(CCc2ccccc2OCc2ccc(-c3ccc(C(F)(F)F)cc3)cc2Cl)[C@H]2CCCc3nc(C(=O)O)ccc32)cc1.O=C(O)c1ccc(CCN(CCc2ccccc2OCc2ccc(-c3ccc(C(F)(F)F)cc3)cc2Cl)[C@H]2CCCc3nc(C(=O)O)ccc32)cc1 [example 6a, (5S)-{[2-(4-Carboxyphenyl)ethyl][2-(2-{[3-chloro-4′-(trifluoromethyl)biphenyl-4-yl]methoxy}phenyl)-ethyl]amino}-5,6,7,8-tetrahydroquinoline-2-carboxylic acid semihydrate]",efficacy with regard to PAP reduction as well as systemic BP reduction,"[1]; 1.5 mg/4 kg (=375 μg/kg) intratracheally, micronized",comparable efficacy
same,BP (mean),[1]; time 0,101 mmHg and 85 mmHg
same,PAP(mean),[1]; time 0,39.6 mmHg and 40.8 mmHg and 38.5 mmHg
same,BP (mean),[1]; time 10,103 mmHg and 83 mmHg and 79 mmHg
same,PAP(mean),[1]; time 10,40.2 mmHg and 41.1 mmHg
same,BP (mean),[1]; time 20,101 mmHg and 83 mmHg and 84 mmHg
same,PAP(mean),[1]; time 20,40.4 mmHg and 41.3 mmHg
same,BP (mean),[1]; time 30,100 mmHg and 81 mmHg and 88 mmHg
same,PAP(mean),[1]; time 30,40.2 mmHg and 41.3 mmHg
same,BP (mean),[1]; time 40,98 mmHg and 81 mmHg and 90 mmHg
same,PAP(mean),[1]; time 40,40.4 mmHg and 41.8 mmHg and 41.0 mmHg
same,BP (mean),[1]; time 50,99 mmHg and 78 mmHg and 89 mmHg
same,PAP(mean),[1]; time 50,40.7 mmHg and 41.7 mmHg and 40.9 mmHg
same,BP % changes vs. prevalues,[1]; time 50,99.6% and 98.4% and 100.6%
same,PAP % changes vs. prevalues,[1]; time 50,99.3% and 98.7% and 98.9%
same,BP (mean),[1]; time 60,100 mmHg and 79 mmHg and 86 mmHg
same,PAP(mean),[1]; time 60,41.2 mmHg and 42.0 mmHg and 40.9 mmHg
same,BP % changes vs. prevalues,[1]; time 60,100.6% and 99.7% and 97.2%
same,PAP % changes vs. prevalues,[1]; time 60,100.7% and 99.4% and 99.2%
same,BP (mean),[1]; time 70,102 mmHg and 78 mmHg and 87 mmHg
same,PAP(mean),[1]; time 70,38.8 mmHg and 40.6 mmHg and 40.1 mmHg
same,BP % changes vs. prevalues,[1]; time 70,102.6% and 98.4% (2×)
same,PAP % changes vs. prevalues,[1]; time 70,94.7% and 96.1% and 97.0%
same,BP (mean),[1]; time 80,102 mmHg and 79 mmHg and 90 mmHg
same,PAP(mean),[1]; time 80,34.1 mmHg and 39.9 mmHg and 37.7 mmHg
same,BP % changes vs. prevalues,[1]; time 80,102.6% and 99.7% and 101.8%
same,PAP % changes vs. prevalues,[1]; time 80,83.4% and 94.5% and 91.2%
same,BP (mean),[1]; time 90,101 mmHg and 81 mmHg and 92 mmHg
same,PAP(mean),[1]; time 90,30.1 mmHg and 37.7 mmHg and 36.6 mmHg
same,BP % changes vs. prevalues,[1]; time 90,101.6% and 102.2% and 104.0%
same,PAP % changes vs. prevalues,[1]; time 90,73.4% and 89.2% and 88.7%
same,BP (mean),[1]; time 100,100 mmHg and 80 mmHg and 95 mmHg
same,PAP(mean),[1]; time 100,28.3 mmHg and 35.9 mmHg and 35.0 mmHg
same,BP % changes vs. prevalues,[1]; time 100,100.6% and 101.0% and 107.4%
same,PAP % changes vs. prevalues,[1]; time 100,69.0% and 85.0% and 84.7%
same,BP (mean),[1]; time 110,99 mmHg and 79 mmHg
same,PAP(mean),[1]; time 110,27.2 mmHg and 34.8 mmHg and 34.0 mmHg
same,BP % changes vs. prevalues,[1]; time 110,99.6% and 99.7% and 111.9%
same,PAP % changes vs. prevalues,[1]; time 110,66.5% and 82.4% and 82.1%
same,BP (mean),[1]; time 120,99 mmHg and 79 mmHg and 96 mmHg
same,PAP(mean),[1]; time 120,26.4 mmHg and 34.1 mmHg and 32.9 mmHg
same,BP % changes vs. prevalues,[1]; time 120,99.6% and 99.7% and 108.6%
same,PAP % changes vs. prevalues,[1]; time 120,64.4% and 80.8% and 79.7%
same,BP (mean),[1]; time 130,98 mmHg and 81 mmHg and 97 mmHg
same,PAP(mean),[1]; time 130,25.7 mmHg and 33.7 mmHg and 31.7 mmHg
same,BP % changes vs. prevalues,[1]; time 130,98.6% and 102.2% and 109.7%
same,PAP % changes vs. prevalues,[1]; time 130,62.8% and 79.9% and 76.7%
same,BP (mean),[1]; time 140,99 mmHg and 82 mmHg and 98 mmHg
same,PAP(mean),[1]; time 140,25.3 mmHg and 33.2 mmHg and 31.3 mmHg
same,BP % changes vs. prevalues,[1]; time 140,99.6% and 103.5% and 110.8%
same,PAP % changes vs. prevalues,[1]; time 140,61.8% and 78.7% and 75.7%
same,BP (mean),[1]; time 150,97 mmHg and 82 mmHg
same,PAP(mean),[1]; time 150,25.0 mmHg and 32.9 mmHg and 30.7 mmHg
same,BP % changes vs. prevalues,[1]; time 150,97.6% and 103.5% and 109.7%
same,PAP % changes vs. prevalues,[1]; time 150,60.9% and 78.0% and 74.3%
same,PAP(mean),[1]; time 160,24.5 mmHg and 32.5 mmHg and 30.2 mmHg
same,BP % changes vs. prevalues,[1]; time 160,96.6% and 102.2% and 109.7%
same,PAP % changes vs. prevalues,[1]; time 160,59.9% and 77.1% and 73.1%
same,BP % changes vs. prevalues,[1]; time 170,95.6% and 99.7% and 107.4%
same,PAP % changes vs. prevalues,[1]; time 170,58.6% and 76.7% and 72.3%
same,BP % changes vs. prevalues,[1]; time 180,94.6% and 99.7% and 106.3%
same,PAP % changes vs. prevalues,[1]; time 180,58.0% and 75.4% and 71.8%
same,BP % changes vs. prevalues,[1]; time 190,94.6% and 108.5% and 105.2%
same,PAP % changes vs. prevalues,[1]; time 190,59.5% and 78.4% and 70.7%
same,BP % changes vs. prevalues,[1]; time 200,92.6% and 107.3% and 104.0%
same,PAP % changes vs. prevalues,[1]; time 200,60.5% and 76.8% and 71.1%
same,BP % changes vs. prevalues,[1]; time 210,90.6% and 102.2% and 102.9%
same,PAP % changes vs. prevalues,[1]; time 210,60.6%
same,BP (mean),[1]; time −10,99 mmHg and 85 mmHg and 86 mmHg
same,PAP(mean),[1]; time −10,38.7 mmHg and 40.6 mmHg
CC#CCC(C)[C@H](O)/C=C/[C@@H]1[C@H]2C/C(=C/CCCC(=O)O)C[C@H]2C[C@H]1O (stereo partly shown) [Ventavis ®],"PAP % changes vs prevalue, mean",[2]; time 0 min,0%
same,"PAP % changes vs prevalue, mean",[2]; time 10 min,−30.3%
same,"PAP % changes vs prevalue, mean",[2]; time 20 min,−20.7%
same,"PAP % changes vs prevalue, mean",[2]; time 30 min,−6.9%
same,"PAP % changes vs prevalue, mean",[2]; time 40 min,1.7%
same,"PAP % changes vs prevalue, mean",[2]; time 50 min,4.9%
